≈ marks a conversion by molar mass, not a printed value.
Key:
[1] = system: Shigella dysenteriae; test: Antibacterial activity against Shigella dysenteriae assessed as inhibition of bacterial growth by two-fold serial dilution assay; assay type: functional
[2] = system: Proteus vulgaris; test: Antibacterial activity against Proteus vulgaris assessed as inhibition of bacterial growth by two-fold serial dilution assay; assay type: functional
[3] = system: MCF7; test: Cytotoxicity against human MCF7 cells assessed as cell growth inhibition by CCK-8 assay; assay type: functional, cell-based

## CCNc1ccc2c3c(cccc13)C(=O)N(CC(O)Cn1c([N+](=O)[O-])cnc1C)C2=O (stereo not drawn)
[1]
  MIC: 10 µM (≈ 4.23 µg/mL)
[2]
  MIC: 2 µM (≈ 0.847 µg/mL)
[3]
  IC50: 8.51 µM
